Assay results: US20210352863A1, “METHOD FOR CONTROLLING WEED BEETS AND OTHER WEEDS” (KWS SAAT SE & Co. KGaA, priority 2018, published 2021)

Tests used:
[1] = test system: sugar beet elite line T807 (mutagenized, M2 plants); test: glyphosate treatment of surviving M2 plants of mutagenized sugar beet (screening and selection for resistance); assay type: in vivo, Beta vulgaris (sugar beet); details: 600 g/ha glyphosate acid equivalent
Source text: 6 kg seeds of sugar beet elite line T807 (3BT1760, M0 population) were mutagenized with 0.5% EMS and 0.3% and 0.5%, respectively ENU, and subsequently drilled for steck production. Stecks were replanted for seed production occupying an area of 5.8 ha. M1 population sizes were 75,000 seed producing plants for EMS and 19,000 plants for ENU mutagenized seeds. The following M2 seed amounts (values given for purified seed) has been obtained: 240 kg for 0.5% EMS (idents A and B), 548 kg for 0.3% ENU (idents C and D), and 256 kg 0.5% ENU (idents E and F).
176 kg of idents A and B and 75 kg of idents C, D, E and F were sown on an approximately 15 ha spanning field site. Approximately 1 month after sowing, the entire field was sprayed with 0.88 I/ha ROUNDUP® MAX (680 g/kg glyphosate acid equivalent). Approximately 6 weeks later, plants surviving the glyphosate treatment were collected in the field, transplanted to pots and further cultivated in the greenhouses. Surviving plants were treated with 600 g/ha glyphosate acid equivalent about 2 months later.
In order to identify the causative mutation behind the observed herbicide resistance sequencing analyses have been performed. Inter alia, the exon 2 of the epsp synthase gene in sugar beet was PCR amplified (primers BvEPSPS_Ex_2_for, 5′-[…]-3′ (SEQ ID NO: 13), and BvEPSPS_Ex_2_rev, 5′-[…]-3′ (SEQ ID NO: 14)) and Sanger sequenced (primers BvEPSPS_Ex2_Seqf, 5′-[…]-3′ (SEQ ID NO: 15), and BvEPSPS_Ex2_Seqr, 5′-[…]-3′ (SEQ ID NO: 16)) in all 172 surviving plants. The sugar beet plant with identifier 6MS1008-109 carried a C to T mutation that causes the P179S amino acid change in BvEPSPS. This artificial SNP has been independently confirmed by KASP marker assay using an in silico developed KASP-marker s1txepss02 (SEQ ID NOs: 17-19): […]

[2] = acid form, at 25° C.; cited from earlier work

With `O=C(O)CNCP(=O)(O)O` [glyphosate, N-phosphonomethylglycine] the “resistance conferred by heterozygous P179S mutation in BvEPSPS” value ([1]; approx. 50% of standard field treatment level, strong indication from screening and selection) was “complete resistance”, the “plants that survived the treatment” value ([1]; potted greenhouse plants that had survived the field spray with ROUNDUP MAX) was 172 plants and the “herbicide damage on surviving plants” value ([1]; the 172 surviving plants in the greenhouse) was “without any signs of herbicide damage”. For the same compound, the solubility in water [2] was 1.16 % by weight.
